The subject of data set [1] is HCC1937 tumor organoids. Put plainly: Tumor organoid cytotoxicity, HCC1937. It counts as cell-based. The conditions noted are these: Homo sapiens; HCC1937 (BRCA1 mutant HR-deficient); read-out: IC50, tumor organoid viability, single agent. As to the method:
Tumor organoid culture—Cell lines were cultured as tumor organoids by seeding 2,000 to 5,000 cells/well into uncoated 96 well U-bottom Ultra Low Attachment Microplates (Corning) using their corresponding medium. Cell aggregation was then promoted by centrifugation of the plates for 15 min at 1,000 rpm followed by the addition of Matrigel (Corning) to a 2-5% final concentration. Tumor organoids were maintained under standard cell culture conditions for 72 h prior to drug treatment.
Organoids were then transferred to a white solid bottom 96 well plate and incubated with an equal volume of CellTiter Glo 3D reagent (Promega) for 45 min on a shaker at 400 rpm. Luminescence was recorded using the EnVision plate reader (PerkinElmer) and values normalized to the controls using GraphPad Prism.

For data set [2], the target named is T1, full length CHD1L (Homo sapiens, UniProt Q86WJ1).
T1 construct: host or cells: Rosetta 2 (DE3) pLysS cells (E. coli) for CHD1L
T1 sequence (Q86WJ1 16-879): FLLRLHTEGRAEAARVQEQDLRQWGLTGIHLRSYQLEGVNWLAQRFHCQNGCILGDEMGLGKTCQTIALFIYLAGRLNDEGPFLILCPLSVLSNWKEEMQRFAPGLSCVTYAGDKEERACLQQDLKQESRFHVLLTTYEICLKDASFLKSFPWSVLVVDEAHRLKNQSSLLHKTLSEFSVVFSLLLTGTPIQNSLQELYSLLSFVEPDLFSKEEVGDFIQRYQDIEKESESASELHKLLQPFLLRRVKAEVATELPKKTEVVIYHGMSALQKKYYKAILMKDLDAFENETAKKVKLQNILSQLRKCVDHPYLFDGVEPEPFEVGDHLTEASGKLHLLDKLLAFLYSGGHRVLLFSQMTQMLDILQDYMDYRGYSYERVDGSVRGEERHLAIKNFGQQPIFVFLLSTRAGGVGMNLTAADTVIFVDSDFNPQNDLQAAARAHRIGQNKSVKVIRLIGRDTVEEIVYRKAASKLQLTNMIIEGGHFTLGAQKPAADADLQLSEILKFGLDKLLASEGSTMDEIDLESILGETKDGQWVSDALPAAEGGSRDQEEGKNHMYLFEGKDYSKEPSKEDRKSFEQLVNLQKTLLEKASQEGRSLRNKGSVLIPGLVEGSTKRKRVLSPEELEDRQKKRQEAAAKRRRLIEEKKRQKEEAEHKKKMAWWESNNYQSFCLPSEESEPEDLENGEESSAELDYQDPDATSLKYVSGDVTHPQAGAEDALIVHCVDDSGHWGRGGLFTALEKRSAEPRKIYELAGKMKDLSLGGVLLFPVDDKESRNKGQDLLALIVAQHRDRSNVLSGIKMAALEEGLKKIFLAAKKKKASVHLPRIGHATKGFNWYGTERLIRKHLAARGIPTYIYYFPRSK
Put plainly: Nucleosome remodeling FRET assay. It is filed as biochemical. The settings on record: full length-CHD1L pre-incubated with 10 μM for 10 minutes. An excerpt:
For that, mononucleosomes composed of a human histone octamer containing a Cy5-tagged H2A, wrapped by a Cy3-labelled DNA template (EpiCypher, Cat #16-4201) were used. […] Right after the addition of ATP the assay was monitored overtime using Cy3 excitation (531 nm) and simultaneous detection of Cy3 (595 nm) and Cy5 (685 nm) emission signals using an EnVision plate reader (PerkinElmer). Data are expressed as the ratio of Cy3/Cy5 signal overtime.
Inhibition of nucleosome remodeling by CHD1L inhibitors blocks DDR signaling. CHD1L's main role is chromatin remodeling and DNA relaxation, moving from a tightly condensed DNA to an accessible state allowing for DNA transcription and repair. Thus, the effect of CHD1L ATPase inhibition on its nucleosome remodeling activity using a FRET-based assay was used. The FRET assay measures the distancing of Cy3 on DNA and Cy5 on the H2A histone upon nucleosome sliding.

The test system of data set [3] is SUM149PT cells. Put plainly: Phosphatidylserine externalization, membrane integrity and DNA fragmentation. It counts as cell-based. As to the method: Phosphatidylserine externalization and membrane integrity—phosphatidylserine externalization and membrane integrity kinetics were analyzed using the RealTime-Glo™ Annexin V Apoptosis and Necrosis Assay (Promega, JA1012) according to the manufacturer's instructions. 8,000 cells were seeded per well in 96 well solid bottom white plates (Corning) in 100 μL and allowed to attach overnight. Then, 75 μL of media were removed, followed by the addition of 25 μL of the test compounds at 4× desired final concentration and 50 μL of the 2× detection reagent. Luminescence and fluorescence were measured overtime using an EnVision plate reader (PerkinElmer). No-cell and medium-only controls were used for background correction.
PARthanatos might be accompanied by other events also occurring during apoptosis or necrosis like mitochondrial depolarization, phosphatidylserine (PS) externalization, loss of membrane integrity and large-scale DNA fragmentation. To better characterize this mechanism, PS externalization and membrane integrity were studied using a real-time multiplex assay that monitors Annexin V binding to PS and simultaneous loss of cell membrane integrity with a membrane impermeable DNA binding dye. […] In contrast, CHD1Li caused a rapid and simultaneous increase of both when combined with SOC drugs, shifting the kinetics to a more non-apoptotic phenotype.

The target in data set [4] is PARP2 (Homo sapiens, UniProt Q9UGN5). Put plainly: PARP2 trapping (in situ subcellular fractionation, immunofluorescence). The arrangement: endogenous in cells; host or cells: SUM149PT. It is filed as cell-based. The settings on record: SUM149PT cells, 0.01% MMS, 4 h.
Sequence of PARP2 (Q9UGN5 whole entry): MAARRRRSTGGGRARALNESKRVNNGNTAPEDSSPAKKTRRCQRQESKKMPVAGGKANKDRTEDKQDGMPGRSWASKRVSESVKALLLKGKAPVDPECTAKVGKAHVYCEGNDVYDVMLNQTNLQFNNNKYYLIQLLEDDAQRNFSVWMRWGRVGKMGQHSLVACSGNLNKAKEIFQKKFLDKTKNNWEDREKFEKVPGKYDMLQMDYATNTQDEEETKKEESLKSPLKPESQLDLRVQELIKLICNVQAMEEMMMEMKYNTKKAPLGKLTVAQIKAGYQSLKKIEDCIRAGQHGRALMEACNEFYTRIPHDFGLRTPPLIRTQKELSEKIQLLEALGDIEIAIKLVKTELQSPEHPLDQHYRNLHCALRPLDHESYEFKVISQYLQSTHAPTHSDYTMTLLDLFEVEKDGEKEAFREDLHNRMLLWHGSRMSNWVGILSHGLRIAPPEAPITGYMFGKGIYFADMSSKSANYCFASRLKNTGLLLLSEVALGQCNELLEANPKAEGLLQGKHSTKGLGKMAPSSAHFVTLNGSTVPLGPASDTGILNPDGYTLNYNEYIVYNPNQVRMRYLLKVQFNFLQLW
Description: PARP1/2 and CHD1L trapping—PARP1, PARP2 and CHD1L trapping were assessed. SUM149PT cells were plated at a density of 20,000 cells per well into clear bottom black 96-well plates (PerkinElmer). […] After 4 h incubation, cell media was aspirated and cells were treated for 10 min at 4° C. with cold cytoskeleton (CSK) buffer (10 mM PIPES pH=6.8, 300 mM sucrose, 200 mM NaCl, 3 mM MgCl2) supplemented with 0.6% Triton X-100. […] PARP1 (anti-PARP1 antibody, 1:2000, O/N, 4° C.), PARP2 (anti-PARP2, 1:1000, O/N, 4° C.) and CHD1L (anti-CHD1L, 1:1000, O/N, 4° C.) primary antibodies were then added in antibody dilution buffer (2% BSA in PBS) and incubated O/N at 4° C.
To study the accumulation of bound PARP1/2 on chromatin, in situ subcellular fractioning of SUM149PT cells co-treated with 0.01% methyl methanesulfonate (MMS) and the drug of interest was used, followed by immunofluorescence.
For data set [5], the system named is HCT116 tumor organoids. Put plainly: Viability of isolated EMT phenotype HCT116 tumor organoids. It counts as cell-based. The conditions noted are these: Homo sapiens, HCT-116, 72 h.
The subject of data set [6] is caspase-3. Put plainly: Caspase-3 cleavage activation. It counts as cell-based. The settings on record: for caspase-3 cleavage activation: single agent. Here is the method:
AIF in the cytoplasm and nucleus was examined. […] Finally, caspase-3 cleavage activation, an apoptosis marker, was measured (FIG. 16D).
CHD1Li-mediated PAR translocation to the cytoplasm activates PARthanatos as a cell death mechanism. Parthanatos is a form a programmed cell death different from apoptosis and known to be mediated by PARP1 overactivation. The unique events occurring during parthanatos are: PARP1 rapid activation, accumulation of PAR and nuclear translocation of apoptosis inducing factor (AIF). Without being bound by any particular theory, accumulation of PAR in the cytoplasm caused by CHD1Li can also mediate parthanatos. To better understand the link between PAR translocation to the cytoplasm and cell death, immunofluorescence to measure the activation of caspase-3 and the subcellular localization of AIF after treatment with SOC drugs and Compound 6 in SUM49PT cells was used. […] Without being bound by any particular theory, this might be caused by the mitochondrial outer membrane permeabilization, which triggers release of mitochondrial proteins like AIF or cytochrome c, activating caspase-3 by its cleavage and leading to apoptosis. […] Moreover, when combining CHD1L inhibition with SOC drugs, the cell death mechanism shifts from apoptosis to parthanatos, evidenced by a significant increase in AIF nuclear translocation and decrease in activation of caspase-3 (FIG. 25D-E).

Data set [7] deals with SW620 Parental cells. Put plainly: SW620 Parental cell viability, combination with chemotherapy. It counts as cell-based. The conditions noted are these: Homo sapiens, SW-620, SW620 cells, read-out: IC50 5-FU.
The test system of data set [8] is HCT116 Parental cells. Put plainly: HCT116 Parental cell viability, combination with chemotherapy. It is filed as cell-based. The conditions noted are these: Homo sapiens, HCT-116, HCT116 cells, read-out: IC50 5-FU.
Data set [9] relates to Colo679 cells. Put plainly: DDR biomarkers (pATM, RAD51, 53BP1, γ-H2AX) in Colo679 cells. It counts as cell-based. The conditions noted are these: 4 μM. An excerpt: Etoposide was used as a control to show upregulation of DDR pathway biomarkers.
Data set [10] in a line: Toxicity in mice. It counts as in vivo.
Excerpt: Organs and blood were harvested and sent to the Colorado State University Flint Animal Cancer Center for histopathological analysis by an independent certified veterinary pathologist with expertise in cancer chemotherapy.
The subject of data set [11] is MCF-7 cells. Put plainly: Tumor organoid viability, MCF-7. The conditions noted are these: Homo sapiens, MCF7; MCF-7 (luminal breast cancer); read-out: IC50, tumor organoid viability, single agent. It counts as cell-based. An excerpt:
The tumor organoid viability assay is as described in Example 9.

Where two headings read alike, the source gives them in different places.

For `Cc1cc(Nc2ccc(NC(=O)Cc3cccs3)cc2)nc(N2CCCC2)n1` [Compound 6, N-(4-((6-methyl-2-(pyrrolidin-1-yl)pyrimidin-4-yl)amino)phenyl)-2-(thiophen-2-yl)acetamide], in data set [1], the IC50 stood at 2800 nM. The nucleosome remodeling rate result in [2] is “reduction of the remodeling rate”. Moreover, the “DNA fragmentation (Hoechst 33342)” value in data set [3] was “large-scale fragmentation of DNA”.

Turning to `O=C(c1cc(Cc2n[nH]c(=O)c3ccccc23)ccc1F)N1CCN(C(=O)C2CC2)CC1` [olaparib], the PARP2 trapping entry in data set [4] is “trapped in a dose-dependent manner both PARP1 and PARP2”. Moreover, the half-maximal inhibitory concentration (IC50) in data set [5] (combined with Compound 6, read-out: IC50 olaparib) is ~30 µM; in data set [5] (olaparib alone) it was ~600 µM.

Regarding `COc1cccc2c1C(=O)c1c(O)c3c(c(O)c1C2=O)C[C@@](O)(C(=O)CO)C[C@@H]3O[C@H]1C[C@H](N)[C@H](O)[C@H](C)O1` [doxorubicin], the “phosphatidylserine externalization / membrane integrity kinetics” value in data set [3] (real-time Annexin V assay) is “apoptotic kinetic phenotype”. Moreover, the caspase-3 cleavage activation entry in data set [6] is given as “activation of apoptosis by cleavage of caspase-3”.

For `O=c1[nH]cc(F)c(=O)[nH]1` [Compound 5-FU, 5-fluorouracil], the IC50 is 20.8 µM in data set [7] (Compound 11 0 μM); 59.5 µM in [7] (Compound 11 2 μM); 54.4 µM in data set [7] (Compound 11 2.25 μM); 47.7 µM in data set [7] (Compound 11 2.5 μM); 41.4 µM in [7] (Compound 12 2 μM); 23.9 µM in data set [7] (Compound 12 2.25 μM). The IC50 in data set [7] (Compound 12 2.5 μM) is 15.4 µM; in [8] (Compound 11 0 μM) it was 95.7 µM; in data set [8] (Compound 11 2.5 μM) it was 192 µM; in data set [8] (Compound 11 3 μM), 63.4 µM; in data set [8] (Compound 11 3.5 μM) it was 43.2 µM; in data set [8] (Compound 12 0 μM), 103 µM. In addition, the IC50 in data set [8] (Compound 12 5 μM) worked out at 34.6 µM; in data set [8] (Compound 12 6 μM) it was 11.5 µM.

For `Cc1cc(Nc2ccc(NC(=O)Cc3cc(Br)cs3)cc2)nc(N2CCCC2)n1` [Compound 6.11, 2-(4-bromothiophen-2-yl)-N-(4-((6-methyl-2-(pyrrolidin-1-yl)pyrimidin-4-yl)amino)phenyl)acetamide], the IC50 in data set [1] is ~2800 nM. In addition, in [9], the “amount of 53BP1” value is recorded as “decrease the amount of 53BP1”, the “amount of RAD51” value is given as “increase the amount of RAD51”, the “amount of pATM” value was “minimal effect” and the γ-H2AX concentrations result was “decreased”. Also, in data set [10] (mice, 100 mg/kg Compound 6.11 daily for 30 days), the “toxicity by complete blood count (CBC) panel and H&E histopathology of liver, heart, bone marrow” value is listed as “no toxicity”. Moreover, in data set [10] (mice, daily dosing up to 100 mg/kg, preliminary studies), the toxicities result is given as “no significant toxicities”. Also, the “toxicity by CBC chemistry and histology of liver, heart, bone marrow” value in data set [10] (nude mice, PO 100 mg/kg 1×/day 7-days/week, alone or combined with irinotecan) is on record as “no toxicity”. For the same compound, the “increase in PARP2 trapping” value in data set [4] is listed as 2 fold. Further, the IC50 in data set [11] is ~1800 nM. For the same compound, in data set [6] (Compound 6.11 combined with SN-38), the caspase-3 activation entry was “enhanced caspase-3 activation”. The caspase-3 cleavage activation result in data set [6] is on record as “did not induce caspase-3 activation”.

For the origin of these results see patent US20260240844A1, “INHIBITORS OF CHD1L AND USES THEREOF” (The Regents of the University of Colorado, a body corporate, priority 2023, published 2026).
